Our source for the TGI and GI50 values is PubChem BioAssay (NCI).

What all share (test): NCI anticancer screen, dose series, 48 h
Assay [1] concerns RXF 393 renal.
Assay [2] concerns SNB-19 CNS.
The test system of assay [3] is ACHN renal.
Assay [4] relates to OVCAR-4 ovarian.
The subject of assay [5] is NCI-H23 lung.
For assay [6], the system named is COLO 205 colon.
The test system of assay [7] is SK-MEL-5 melanoma.
Assay [8] deals with M14 melanoma.
In assay [9] the test system is RPMI-8226 leukemia.
The subject of assay [10] is HCT-15 colon.

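These data come from cells grown in 96-well plates and exposed to compound for 48 hours at five concentrations. Abbreviation: GI50, concentration required for 50% inhibition of growth. The concentration for full growth arrest is given as TGI.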

In the case of `CCCCCCCCCC1CC(=O)OC2=C1C(=O)CCC2` (stereo not drawn), the TGI in assay [1], in [2], in assay [3], in assay [4], in assay [5] and in assay [6] was > 100 µM in each case. In addition, the TGI in assay [7], in assay [8] and in [9] was > 100 µM throughout.

Regarding `O=C(Nc1ccc(Cl)c(Cl)c1)c1ccc(NC2=C(Cl)C(=O)N(Cc3ccccc3)C2=O)cc1`, the GI50 in assay [2] is 52.9 µM; in assay [4], 17.2 µM; in assay [5], 14.2 µM; in assay [6], 20 µM; in assay [7], 5.02 µM; in assay [8], 17.1 µM. The GI50 in assay [9] is 2.02 µM. For the same compound, the TGI was > 100 µM in assay [2]; 42.1 µM in assay [4]; 27.4 µM in assay [5]; 66.6 µM in assay [6]; 17.9 µM in assay [7]; 32.9 µM in assay [8]. This compound also gave a TGI in assay [9] of 4.29 µM.

Regarding `O=C(Nc1ccc(Br)c2ccccc12)c1ccc2ccccc2c1O`, the TGI in assay [2] was > 100 µM; in assay [3], > 100 µM; in assay [4] it was > 100 µM; in assay [5] it was 10.2 µM; in assay [6], 5.49 µM; in [10], 7.1 µM. In addition, the TGI in assay [7] worked out at 3.78 µM; in [8], 18.3 µM.

Regarding `O=C(NC1CCC[C@H]1OC(=O)c1ccccc1)c1ccccc1` (stereo partly drawn), the TGI in assay [1], in [2], in assay [4], in assay [5], in [7] and in [8] was > 100 µM each time.

For `CC1(C)CC(=O)C(CC2C(=O)CCCC2=O)C(=O)C1`, the TGI in assay [1], in [2], in [3], in assay [4], in [5] and in [6] was > 100 µM each time. In addition, the TGI in assay [10], in assay [7] and in assay [8] was > 100 µM each time.

For the compound `CC1=CC2(C)/C=C(C)/C=C\CC(O)/C=C3/C=CC(=C4C(=O)OC2(CC1C)C4=O)OC3` (stereo not drawn), the GI50 in assay [2] is 12 µM; in assay [3] it was 1.32 µM; in assay [4], 1.89 µM; in [5], 2.66 µM; in assay [6], 1.47 µM; in assay [10], 1.47 µM. Besides, the GI50 in assay [7] was 3.07 µM; in assay [8], 2.8 µM; in assay [9], 0.328 µM. Further, the TGI in assay [2] is 25.9 µM; in [3] it was 2.67 µM; in assay [4] it was 4.91 µM; in assay [5], 7.82 µM; in assay [6], 3.65 µM; in [10], 3.69 µM. The TGI in assay [7] is 11.6 µM; in assay [8], 9.21 µM.

With `COc1ccc(C(C2=C(O)CC(C)OC2=O)C2=C(O)CC(C)OC2=O)cc1` (stereo not drawn), the TGI in assay [2], in [3], in assay [4], in [5], in assay [6] and in assay [10] was > 100 µM each time. For the same compound, the TGI in assay [7], in assay [8] and in assay [9] was > 100 µM throughout.

As for `CC1C(c2ccccc2)N(C)C(c2ccccc2)C(C)C1(O)c1ccccc1` (stereo not drawn), the TGI was > 100 µM in assay [1]; > 100 µM in assay [2]; > 100 µM in assay [3]; > 100 µM in [4]; > 100 µM in [5]; 58.7 µM in [6]. The TGI in [10], in [7] and in assay [8] was > 100 µM each time.

In the case of `Cc1nnc(N/N=C/c2ccc([N+](=O)[O-])o2)[nH]c1=O`, the GI50 in assay [2] is 0.779 µM; in [3] it was 0.603 µM; in [4], 3.36 µM; in assay [5], 1.37 µM; in [6], 2.53 µM; in [10] it was 1.86 µM. Besides, the GI50 in assay [7] was 0.84 µM; in assay [8], 2.89 µM; in assay [9], 2.95 µM. In addition, the TGI in assay [2] was > 100 µM; in assay [3], 4.58 µM; in assay [4] it was > 100 µM; in assay [5], > 100 µM; in assay [6], > 100 µM; in assay [10], > 100 µM. The TGI in [7] is 3.3 µM; in [8], > 100 µM; in assay [9] it was > 32 µM.

Consider `CC(=O)C(CN1C(=O)c2ccccc2C1=O)C(C)=O`, for which the TGI is 53.8 µM in [1]; > 100 µM in [2]; > 100 µM in assay [3]; > 100 µM in [4]; > 100 µM in assay [5]; > 100 µM in assay [6]. The TGI in assay [10], in assay [7] and in assay [8] was > 100 µM throughout.

As for `Cc1cc(-c2ccccc2)nc(Nc2cc3ccccc3[nH]2)n1`, the TGI in assay [2], in assay [3], in assay [4], in assay [5], in assay [6] and in assay [10] was > 100 µM each time. The TGI in assay [7], in assay [8] and in assay [9] was > 100 µM each time.

With `Cc1cc2nc3c(C#N)c(C)c(CCCl)c(Cl)n3c2cc1C`, the TGI in assay [2] came to 36.3 µM; in assay [3] it was 11.1 µM; in assay [4], 16.6 µM; in assay [5] it was 5.29 µM; in assay [6], 14.8 µM; in assay [10], 3.85 µM. Moreover, the values for the TGI in [7], in assay [8] and in assay [9] were 8.82 µM, 6.16 µM and 5.49 µM, respectively.

Turning to `CCO/C=C\C12CCCC1NC(c1ccccc1)(c1ccccc1)O2` (stereo not drawn), the TGI in [1] is 81.3 µM; in assay [2] it was > 100 µM; in assay [3] it was 92.5 µM; in [4] it was > 100 µM; in assay [5] it was 80.2 µM; in assay [7], 31.1 µM. The same compound showed a TGI in [8] of 66 µM.

As for `COc1cc(/C=C2\[C@@H]3NC(Cc4c(OC)c(C)c(OC)c(OC)c43)C(=O)N2Cc2ccccc2)c(OC)c(C)c1OC`, the TGI is 72.8 µM in assay [1]; > 100 µM in [2]; > 100 µM in assay [3]; 89.8 µM in assay [4]; > 100 µM in assay [5]; 28.3 µM in [6]. The TGI in assay [7] is > 100 µM; in [8], > 100 µM; in assay [9] it was 91.8 µM.

`O=[N+]([O-])c1ccc2c(c1)C(N1CCN(CCO)CC1)Cc1ccc(F)cc1S2` (stereo not drawn): the TGI in assay [1] is 4.73 µM; in [2], 24.6 µM; in assay [3], 16.7 µM; in assay [4], 33.5 µM; in [5], 29 µM; in assay [6] it was 28.7 µM. Also, the TGI in [10] came out at 19 µM; in [7] it was 3.48 µM.

Turning to `CCCCCCCCCCCCCCNCC(OC)OC`, the TGI in [1] came out at 28.9 µM; in [2], 33.8 µM; in [3] it was 31.1 µM; in assay [4], 30.1 µM; in [5] it was 36.8 µM; in assay [6] it was 28.3 µM. Also, the values for the TGI in [10], in [7] and in assay [8] were 25.7 µM, 29.3 µM and 27.4 µM, respectively.

Regarding `OC1OCC(COc2cc(Cl)c(Cl)cc2Cl)OC1O` (stereo not drawn), the TGI in [2] was > 100 µM; in assay [3], > 100 µM; in assay [4], > 100 µM; in assay [5], > 100 µM; in assay [6], > 100 µM; in assay [10] it was 44.6 µM. In addition, the TGI in [7] was > 100 µM; in assay [8] it was > 100 µM; in assay [9], 77.9 µM.

Take `C=CCc1c(O)c(C(=O)/C=C/c2ccc(Cl)cc2)c(OC)c2ccoc12`: the GI50 in assay [1] was 1.72 µM; in [2], 2.85 µM; in [3], 2.31 µM; in assay [4], 2.77 µM; in assay [5] it was 2.78 µM; in [6] it was 4.44 µM. Further, the results for the GI50 in [10], in assay [7] and in [8] were 3.4 µM, 2.07 µM and 5.08 µM, respectively. Further, the TGI worked out at 3.6 µM in assay [1]; 8.15 µM in [2]; 6.17 µM in [3]; 13.1 µM in assay [4]; 11.6 µM in assay [5]; 15.5 µM in assay [6]. In addition, the results for the TGI in assay [10], in assay [7] and in assay [8] were 12.9 µM, 5.18 µM and 29.2 µM, respectively.

On to `CCN1CCN(C(=O)[C@]23CC[C@@H](C)[C@H](C)[C@@H]2C2=CC[C@@H]4[C@@]5(C)CCC(=O)C(C)(C)[C@@H]5CC[C@@]4(C)[C@]2(C)CC3)CC1`, for which the GI50 in assay [1] was 0.822 µM; in [2] it was 0.849 µM; in assay [3], 1.33 µM; in [4], 1.26 µM; in assay [5] it was 1.08 µM; in assay [6], 1.02 µM. For the same compound, the GI50 in assay [10] was 0.977 µM; in [7] it was 0.888 µM; in assay [8], 0.794 µM. The TGI in [1] was found to be 1.74 µM; in assay [2] it was 1.72 µM; in [3], 4.38 µM; in assay [4] it was 4.74 µM; in assay [5] it was 2.9 µM; in [6], 2.37 µM. Moreover, the TGI in assay [10] worked out at 2.39 µM; in [7] it was 1.6 µM; in assay [8] it was 1.61 µM.

Consider `Cc1nc(N)c(N2CCN(S(=O)(=O)N(Cc3ccccc3)Cc3ccccc3)CC2)c(=O)[nH]1`, for which the TGI was 74.7 µM in assay [2]; 85.1 µM in [3]; 93.6 µM in assay [4]; 47.8 µM in assay [5]; 65.9 µM in assay [6]; > 100 µM in assay [10]. For the same compound, the TGI in assay [8] and in [9] was > 100 µM throughout.

Turning to `C=CC1=C(C)C(/C=c2\[nH]/c(=C/c3[nH]c(CC4NC(=O)C(C)/C4=C\C)c(C)c3CCC(=O)O)c(CC(=O)O)c2C)=NC1=O` (stereo not drawn), the TGI in assay [1], in assay [2], in [3], in assay [4], in [5] and in assay [6] was > 100 µM in each case. Further, the TGI in assay [10] and in assay [8] was > 100 µM in each case.

Regarding `O=C(CC12C3C4C1C1C2C3C41CC(=O)NO)NO` (stereo not drawn), the TGI in [2], in assay [3], in [5], in assay [6], in [10] and in assay [7] was > 100 µM each time. The TGI in [8] and in assay [9] was > 100 µM in each case.

With `O=C1CCC2(O)c3ccccc3C2Cc2ccccc21` (stereo not drawn), the TGI in assay [1], in assay [2], in assay [3], in assay [5], in assay [6] and in [9] was > 100 µM each time.

As to `CC(NNC(=S)N1CCN(c2ccccn2)CC1)c1nccc2ccccc12` (stereo not drawn), the TGI in assay [1] turned out to be 8.53 µM; in assay [2], 17 µM; in assay [3] it was 10.9 µM; in assay [4], 19.2 µM; in [5] it was 13.7 µM; in assay [6], 5.93 µM. Besides, the TGI in [10] came to 17.3 µM; in [7], 12.3 µM; in [8] it was 2.46 µM.

Take `O=[N+]([O-])c1c(O)c2nonc2c2nn(-c3ccccc3)nc12`: the TGI in assay [2], in assay [3], in assay [4], in assay [5], in assay [6] and in [10] was > 100 µM each time. The TGI in [7], in [8] and in assay [9] was > 100 µM each time.

For `Cc1ccc(/C=C2\CCCCC2=O)cc1`, the TGI in assay [3], in [4], in assay [5], in [6], in assay [10] and in [7] was > 100 µM each time. In addition, the TGI in assay [8] was > 100 µM.

As for `O=C(O)c1cc(NCc2cc(O)ccc2O)ccc1O`, the TGI in assay [1], in assay [2], in assay [3], in assay [4], in assay [5] and in assay [6] was > 100 µM each time. The TGI in assay [10], in assay [7] and in assay [8] was > 100 µM each time.
